# pIC50: −log10 of the molar value.
# Target: T1, human full-length MKNK1 (Homo sapiens, UniProt Q9BUB5, T385D)
# T1 construct: GST (N); purchased Carna Biosciences 02-145; host or cells: insect cells (baculovirus expression system)
# Experiment: MKNK1 kinase high ATP assay (TR-FRET)
# Type: biochemical
# Conditions: TR-FRET, 2 mM ATP (high ATP), 15 min preincubation with enzyme, 30 min reaction at 22° C.; read-out: MKNK1 IC50
# Outline: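 Full-length human MKNK1 (T385D) preincubated 15 min at 22 °C with compound in HEPES pH 7.5/MgCl2/DTT buffer; reaction with 2 mM ATP (final) and 0.06 μM biotinylated peptide (final), 30 min at 22 °C.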
# T1 sequence (Q9BUB5 1-424 isoform Q9BUB5-2 T344D): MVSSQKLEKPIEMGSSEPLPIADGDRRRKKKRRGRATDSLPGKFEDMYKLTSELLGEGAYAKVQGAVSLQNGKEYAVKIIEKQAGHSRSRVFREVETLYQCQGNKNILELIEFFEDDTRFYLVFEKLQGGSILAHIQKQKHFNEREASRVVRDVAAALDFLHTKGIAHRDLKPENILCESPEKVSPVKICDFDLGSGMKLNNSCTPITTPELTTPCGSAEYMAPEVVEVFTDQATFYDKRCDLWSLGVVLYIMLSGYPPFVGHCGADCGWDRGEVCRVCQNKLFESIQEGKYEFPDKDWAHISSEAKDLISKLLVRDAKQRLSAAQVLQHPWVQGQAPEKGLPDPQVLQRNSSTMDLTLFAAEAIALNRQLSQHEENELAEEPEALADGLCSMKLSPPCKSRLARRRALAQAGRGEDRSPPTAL
row,pIC50,SMILES
1,9.70,"NC(=O)[C@H]1CCc2c(sc3ncnc(Nc4cc(Cl)c5n(c4=O)C4(CCC4)NC5=O)c23)C1 [Example 94, (7S)-4-[(8′-Chloro-1′,5′-dioxo-1′,5′-dihydro-2′H-spiro[cyclobutane-1,3′-imidazo[1,5-a]pyridin]-6′-yl)amino]-5,6,7,8-tetrahydro[1]benzothieno[2,3-d]pyrimidine-7-carboxamide]"
2,8.72,"CN(C)C(=O)[C@H]1CCc2c(sc3ncnc(Nc4cc(Cl)c5n(c4=O)C4(CCC4)NC5=O)c23)C1 [Example 95, (7S)-4-[(8′-Chloro-1′,5′-dioxo-1′,5′-dihydro-2′H-spiro[cyclobutane-1,3′-imidazo[1,5-a]pyridin]-6′-yl)amino]-N,N-dimethyl-5,6,7,8-tetrahydro[1]benzothieno[2,3-d]pyrimidine-7-carboxamide]"
3,10.00,"O=C1NC2(CCC2)n2c1c(Cl)cc(Nc1ncnc3sc4c(c13)CC[C@H](C(=O)N1CCC1)C4)c2=O [Example 96, 6′-{[(7S)-7-(Azetidine-1-carbonyl)-5,6,7,8-tetrahydro[1]benzothieno[2,3-d]pyrimidin-4-yl]amino}-8′-chloro-2′H-spiro[cyclobutane-1,3′-imidazo[1,5-a]pyridine]-1′,5′-dione]"
4,10.00,"N#CC1CN(C(=O)[C@H]2CCc3c(sc4ncnc(Nc5cc(Cl)c6n(c5=O)C5(CCC5)NC6=O)c34)C2)C1 [Example 97, 1-{(7S)-4-[(8′-Chloro-1′,5′-dioxo-1′,5′-dihydro-2′H-spiro[cyclobutane-1,3′-imidazo[1,5-a]pyridin]-6′-yl)amino]-5,6,7,8-tetrahydro[1]benzothieno[2,3-d]pyrimidine-7-carbonyl}azetidine-3-carbonitrile]"
5,> 10.00,"CN(C)[C@H]1CCN(C(=O)[C@H]2CCc3c(sc4ncnc(Nc5cc(Cl)c6n(c5=O)C5(CCC5)NC6=O)c34)C2)C1 [Example 98, 8′-Chloro-6′-({(7S)-7-[(3S)-3-(dimethylamino)pyrrolidine-1-carbonyl]-5,6,7,8-tetrahydro[1]benzothieno[2,3-d]pyrimidin-4-yl}amino)-2′H-spiro[cyclobutane-1,3′-imidazo[1,5-a]pyridine]-1′,5′-dione]"
6,10.00,"C[C@@H]1COCCN1C(=O)[C@H]1CCc2c(sc3ncnc(Nc4cc(Cl)c5n(c4=O)C4(CCC4)NC5=O)c23)C1 [Example 99, 8′-Chloro-6′-({(7S)-7-[(3R)-3-methylmorpholine-4-carbonyl]-5,6,7,8-tetrahydro[1]benzothieno[2,3-d]pyrimidin-4-yl}amino)-2′H-spiro[cyclobutane-1,3′-imidazo[1,5-a]pyridine]-1′,5′-dione]"
7,10.00,"C[C@@H]1CN(C(=O)[C@H]2CCc3c(sc4ncnc(Nc5cc(Cl)c6n(c5=O)C5(CCC5)NC6=O)c34)C2)CCN1C [Example 100, 8′-Chloro-6′-({(7S)-7-[(3R)-3,4-dimethylpiperazine-1-carbonyl]-5,6,7,8-tetrahydro[1]benzothieno[2,3-d]pyrimidin-4-yl}amino)-2′H-spiro[cyclobutane-1,3′-imidazo[1,5-a]pyridine]-1′,5′-dione]"
8,8.74,"O=C1NC2(CSC2)n2c1c(Cl)cc(Nc1ncnc3sc4c(c13)CC[C@H](C(=O)O)C4)c2=O [Example 101, (7S)-4-[(8-Chloro-1,5-dioxo-1,5-dihydro-2H-spiro[imidazo[1,5-a]pyridine-3,3′-thietan]-6-yl)amino]-5,6,7,8-tetrahydro[1]benzothieno[2,3-d]pyrimidine-7-carboxylic acid]"
9,9.70,"CN(C)C(=O)[C@H]1CCc2c(sc3ncnc(Nc4cc(Cl)c5n(c4=O)C4(CSC4)NC5=O)c23)C1 [Example 102, (7S)-4-[(8-Chloro-1,5-dioxo-1,5-dihydro-2H-spiro[imidazo[1,5-a]pyridine-3,3′-thietan]-6-yl)amino]-N,N-dimethyl-5,6,7,8-tetrahydro[1]benzothieno[2,3-d]pyrimidine-7-carboxamide]"
10,9.70,"O=C1NC2(CSC2)n2c1c(Cl)cc(Nc1ncnc3sc4c(c13)CC[C@H](C(=O)N1CCC1)C4)c2=O [Example 103, 6-{[(7S)-7-(Azetidine-1-carbonyl)-5,6,7,8-tetrahydro[1]benzothieno[2,3-d]pyrimidin-4-yl]amino}-8-chloro-2H-spiro[imidazo[1,5-a]pyridine-3,3′-thietane]-1,5-dione]"
11,9.70,"N#CC1CN(C(=O)[C@H]2CCc3c(sc4ncnc(Nc5cc(Cl)c6n(c5=O)C5(CSC5)NC6=O)c34)C2)C1 [Example 104, 1-{(7S)-4-[(8-Chloro-1,5-dioxo-1,5-dihydro-2H-spiro[imidazo[1,5-a]pyridine-3,3′-thietan]-6-yl)amino]-5,6,7,8-tetrahydro[1]benzothieno[2,3-d]pyrimidine-7-carbonyl}azetidine-3-carbonitrile]"
12,10.00,"CN(C)[C@H]1CCN(C(=O)[C@H]2CCc3c(sc4ncnc(Nc5cc(Cl)c6n(c5=O)C5(CSC5)NC6=O)c34)C2)C1 [Example 105, 8-Chloro-6-({(7S)-7-[(3S)-3-(dimethylamino)pyrrolidine-1-carbonyl]-5,6,7,8-tetrahydro[1]benzothieno[2,3-d]pyrimidin-4-yl}amino)-2H-spiro[imidazo[1,5-a]pyridine-3,3′-thietane]-1,5-dione]"
13,9.52,"C[C@@H]1COCCN1C(=O)[C@H]1CCc2c(sc3ncnc(Nc4cc(Cl)c5n(c4=O)C4(CSC4)NC5=O)c23)C1 [Example 106, 8-Chloro-6-({(7S)-7-[(3R)-3-methylmorpholine-4-carbonyl]-5,6,7,8-tetrahydro[1]benzothieno[2,3-d]pyrimidin-4-yl}amino)-2H-spiro[imidazo[1,5-a]pyridine-3,3′-thietane]-1,5-dione]"
14,9.70,"C[C@@H]1CN(C(=O)[C@H]2CCc3c(sc4ncnc(Nc5cc(Cl)c6n(c5=O)C5(CSC5)NC6=O)c34)C2)CCN1C [Example 107, 8-Chloro-6-({(7S)-7-[(3R)-3,4-dimethylpiperazine-1-carbonyl]-5,6,7,8-tetrahydro[1]benzothieno[2,3-d]pyrimidin-4-yl}amino)-2H-spiro[imidazo[1,5-a]pyridine-3,3′-thietane]-1,5-dione]"
15,9.10,"O=C1NC2(CSC2)n2c1c(Cl)cc(Nc1ncnc3sc4c(c13)CC[C@H](C(=O)N1C[C@H]3C[C@@H]1CO3)C4)c2=O [Example 108, 8-Chloro-6-({(7S)-7-[(1R,4R)-2-oxa-5-azabicyclo[2.2.1]heptane-5-carbonyl]-5,6,7,8-tetrahydro[1]benzothieno[2,3-d]pyrimidin-4-yl}amino)-2H-spiro[imidazo[1,5-a]pyridine-3,3′-thietane]-1,5-dione]"
16,7.57,"CC1(C)NC(=O)c2c(Cl)cc(Nc3ncnc4sc5c(c34)CC[C@H](C(=O)O)C5)c(=O)n21 [Example 109, (7S)-4-[(8-Chloro-3,3-dimethyl-1,5-dioxo-1,2,3,5-tetrahydroimidazo[1,5-a]pyridin-6-yl)amino]-5,6,7,8-tetrahydro[1]benzothieno[2,3-d]pyrimidine-7-carboxylic acid]"
17,8.92,"CC1(C)NC(=O)c2c(Cl)cc(Nc3ncnc4sc5c(c34)CC[C@H](C(N)=O)C5)c(=O)n21 [Example 110, (7S)-4-[(8-Chloro-3,3-dimethyl-1,5-dioxo-1,2,3,5-tetrahydroimidazo[1,5-a]pyridin-6-yl)amino]-5,6,7,8-tetrahydro[1]benzothieno[2,3-d]pyrimidine-7-carboxamide]"
18,9.52,"CN(C)C(=O)[C@H]1CCc2c(sc3ncnc(Nc4cc(Cl)c5n(c4=O)C(C)(C)NC5=O)c23)C1 [Example 111, (7S)-4-[(8-Chloro-3,3-dimethyl-1,5-dioxo-1,2,3,5-tetrahydroimidazo[1,5-a]pyridin-6-yl)amino]-N,N-dimethyl-5,6,7,8-tetrahydro[1]benzothieno[2,3-d]pyrimidine-7-carboxamide]"
19,9.70,"CC1(C)NC(=O)c2c(Cl)cc(Nc3ncnc4sc5c(c34)CC[C@H](C(=O)N3CCC3)C5)c(=O)n21 [Example 112, 6-{[(7S)-7-(Azetidine-1-carbonyl)-5,6,7,8-tetrahydro[1]benzothieno[2,3-d]pyrimidin-4-yl]amino}-8-chloro-3,3-dimethyl-2,3-dihydroimidazo[1,5-a]pyridine-1,5-dione]"
20,9.70,"CC1(C)NC(=O)c2c(Cl)cc(Nc3ncnc4sc5c(c34)CC[C@H](C(=O)N3CC(C#N)C3)C5)c(=O)n21 [Example 113, 1-{(7S)-4-[(8-Chloro-3,3-dimethyl-1,5-dioxo-1,2,3,5-tetrahydroimidazo[1,5-a]pyridin-6-yl)amino]-5,6,7,8-tetrahydro[1]benzothieno[2,3-d]pyrimidine-7-carbonyl}azetidine-3-carbonitrile]"
21,> 10.00,"CN(C)[C@H]1CCN(C(=O)[C@H]2CCc3c(sc4ncnc(Nc5cc(Cl)c6n(c5=O)C(C)(C)NC6=O)c34)C2)C1 [Example 114, 8-Chloro-6-({(7S)-7-[(3S)-3-(dimethylamino)pyrrolidine-1-carbonyl]-5,6,7,8-tetrahydro[1]benzothieno[2,3-d]pyrimidin-4-yl}amino)-3,3-dimethyl-2,3-dihydroimidazo[1,5-a]pyridine-1,5-dione]"
22,9.70,"C[C@@H]1CN(C(=O)[C@H]2CCc3c(sc4ncnc(Nc5cc(Cl)c6n(c5=O)C(C)(C)NC6=O)c34)C2)CCN1C [Example 115, 8-Chloro-6-({(7S)-7-[(3R)-3,4-dimethylpiperazine-1-carbonyl]-5,6,7,8-tetrahydro[1]benzothieno[2,3-d]pyrimidin-4-yl}amino)-3,3-dimethyl-2,3-dihydroimidazo[1,5-a]pyridine-1,5-dione]"
23,9.52,"CC1(C)NC(=O)c2c(Cl)cc(Nc3ncnc4sc5c(c34)CC[C@H](C(=O)N3C[C@H]4C[C@@H]3CO4)C5)c(=O)n21 [Example 116, 8-Chloro-3,3-dimethyl-6-({(7S)-7-[(1R,4R)-2-oxa-5-azabicyclo[2.2.1]heptane-5-carbonyl]-5,6,7,8-tetrahydro[1]benzothieno[2,3-d]pyrimidin-4-yl}amino)-2,3-dihydroimidazo[1,5-a]pyridine-1,5-dione]"

# — US20190388425A1, “SUBSTITUTED IMIDAZOPYRIDINPYRIMIDINES” (Bayer Pharma Aktiengesellschaft, priority 2017, published 2019)
